Legend:
[1] = Solution stability (HPLC); assay type: physicochemical
Experimental: (§1) All samples were prepared/diluted to a concentration of 0.2 mg/mL in methanol prior to analysis by HPLC. A freshly prepared sample of each salt was used as the reference standard for external standard calibration analysis.

[2] = Equilibration in solvents and buffers: form conversion; conditions: water / aqueous solutions
[3] = Stability of mixtures with excipients; assay type: physicochemical
Experimental: as §1

[4] = Solubility, 24-hour equilibration at room temperature; assay type: physicochemical; conditions: for Solubility: approx. at 25° C.
Procedure, shortened: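 20-50 mg sample in 1 ml solvent, equilibrated 24 h at room temperature. Dissolved amount measured gravimetrically or by UV-VIS, and pH of the clear solution recorded; salts may dissociate to free form, affecting solubility and pH.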

Solid-state stability = assay type: physicochemical; conditions: for Bulk stability (XRPD): 1 week
Experimental: as §1

[5] = pH of saturated solution or 1% suspension in water; assay type: physicochemical; conditions: In pH = 6.8 buffer
[6] = Intrinsic dissolution rate, rotation disk method; assay type: physicochemical; conditions: for Intrinsic Dissolution Rate: 37° C., 200 r.p.m.
Procedure, shortened: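 Pellets of drug substance dissolved by rotating disk at 200 r.p.m. into a 500 mL vessel at 37 °C. Dissolved drug monitored continuously by recirculating the medium through a UV cell.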

[7] = pH of saturated solution or 1% suspension in water; assay type: physicochemical; conditions: room temperature
Experimental: pH Value: The pH at room temperature of a saturated solution or 1% suspension of the drug substance in water was recorded.

[8] = 2 mg/mL in methanol, 1 week at 50° C.
[9] = 2 mg/mL in water, 1 week at 50° C.
[10] = 2% in 0.5% HPMC 4000, 1 day at RT
[11] = 2% in 0.5% Klucel HF, 1 day at RT
[12] = 2% in 0.8% Tween 80, 1 day at RT
[13] = 5% solution, 1 day at RT (diluted 1:100 in pH 6.8 buffer)
[14] = Mixture 1: 50% PVP + 50% Crospovidone, 50° C./75% r.h., 2 weeks
[15] = Mixture 2: 50% Starch 1500 + 5% MCC 102, 50° C./75% r.h., 2 weeks
[16] = Mixture 3: 5% PVP + 5% Crospovidone + 10% Starch 1500 + 80% MCC 102, 50° C./75% r.h., 2 weeks
[17] = Mixture 4: 99% Lactose + 1% BHT/BHA, 50° C./75% r.h., 2 weeks
[18] = Mixture 5: 99% Mannitol + 1% BHT/BHA, 50° C./75% r.h., 2 weeks
[19] = Mixture 6: 50% Mannitol + 47% HPCLH21 + 1% BHT/BHA + 2% Magnesium Stearate, 50° C./75% r.h., 2 weeks
[20] = Mixture 7: 50% Cetyl Alcohol + 49% HPCLH21 + 1% Magnesium Stearate, 50° C./75% r.h., 2 weeks
[21] = Bulk stability, 2 weeks, 50° C.
[22] = Bulk stability, 2 weeks, 50° C./20% water
[23] = Bulk stability, 2 weeks, 50° C./75% r.h.
[24] = Light study, 1200 kLux (300-800 nm)

- pH of initial mixture ([1]; 2 mg/mL in 100 mM lactate buffer, pH 3.5): 3.48
- % DP (total degradation products) [1, 8]: 0.62 % area
- assay [1, 8]: [101.2]
- pH of initial mixture ([1]; 2 mg/mL in water): 6.55
- % DP (total degradation products) [1, 9]: 1.16 % area
- assay [1, 9]: [99.30]
- % DP (total degradation products) ([1]; 2 mg/mL, 100 mM lactate buffer pH 3.5, 1 week at 50° C.): 1.60 % area
- assay ([1]; 2 mg/mL, 100 mM lactate buffer pH 3.5, 1 week at 50° C., external standard): [99.25]
- % DP (total degradation products) ([1]; 2% in 0.5% CMC, 1 day at RT): 0.74 % area
- CL (appearance) ([1]; 2% in 0.5% CMC, 1 day at RT): A↓↓
- assay ([1]; 2% in 0.5% CMC, 1 day at RT): [79.72]
- % DP (total degradation products) [1, 10]: 0.66 % area
- assay [1, 10]: [97.30]
- % DP (total degradation products) [1, 11]: 0.66 % area
- assay [1, 11]: [97.63]
- % DP (total degradation products) [1, 12]: 0.63 % area
- assay [1, 12]: [98.05]
- % DP (total degradation products) [1, 13]: 0.78 % area
- assay [1, 13]: [99.30]
- stability characteristics, in words ([1]; both in solution and in the solid state): very good stability
- Unstressed (% Area) ([1]; unstressed baseline of the stability study): 99.30% Area
- conversion upon equilibration [2]: polymorphic transformation
- % DP (total degradation products) [3, 14]: 0.8 % area
- % DS (drug substance) [3, 14]: 99.2 % area
- % DP (total degradation products) [3, 15]: 0.7 % area
- % DS (drug substance) [3, 15]: 99.3 % area
- % DP (total degradation products) [3, 16]: 0.7 % area
- % DS (drug substance) [3, 16]: 99.3 % area
- % DP (total degradation products) [3, 17]: 0.8 % area
- % DS (drug substance) [3, 17]: 99.2 % area
- % DP (total degradation products) [3, 18]: 0.8 % area
- % DS (drug substance) [3, 18]: 99.2 % area
- % DP (total degradation products) [3, 19]: 0.7 % area
- % DS (drug substance) [3, 19]: 99.3 % area
- % DP (total degradation products) [3, 20]: 0.6 % area
- % DS (drug substance) [3, 20]: 99.4 % area
- % DP (total degradation products) ([3]; Standard, freshly prepared): 0.5 % area
- % DS (drug substance) ([3]; Standard, freshly prepared): 99.5 % area
- stability with all excipient mixtures tested, in words ([3]; after 2 weeks at 50° C./75% r.h.): very good stability
- aqueous solubility [4]: 12900 µg/mL
- solubility in methanol and ethanol, in words [4]: high
- solubility in other common / remaining organic solvents, in words [4]: appreciable
- Solubility ([4]; 0.1N HCl): 600 µg/mL
- Solubility ([4]; 2-Propanol): 2200 µg/mL
- Solubility ([4]; Acetone): 3000 µg/mL
- Solubility ([4]; Ethanol): 14600 µg/mL
- Solubility ([4]; Ethyl acetate): 6400 µg/mL
- Solubility ([4]; Methanol): >115000 µg/mL
- Solubility ([4]; Propylene glycol): 46500 µg/mL
- Solubility ([4]; Water): 12900 µg/mL
- behaviour of clear aqueous solutions on storage ([4]; concentration below the reported solubility, precipitate found to be the free base): solid precipitation occurred
- approximate solubility in water as % ([4]; estimated from mg/mL assuming solution density 1 g/mL): 1.3%
- Solubility ([4]; pH = 6.8 buffer): 4100 µg/mL
- Bulk stability (XRPD) (Solid-state stability; 80° C.): No change
- Bulk stability (XRPD) (Solid-state stability; 80° C./75% r.h.): No change
- % DP (total degradation products) (Solid-state stability; [21]): 0.80 % area
- assay (Solid-state stability; [21]): [99.35]
- % DP (total degradation products) (Solid-state stability; [22]): 1.48 % area
- assay (Solid-state stability; [22]): [97.36]
- % DP (total degradation products) (Solid-state stability; [23]): 1.20 % area
- assay (Solid-state stability; [23]): [100.0]
- % DP (total degradation products) (Solid-state stability; [24]): 1.16 % area
- CL (appearance) (Solid-state stability; [24]): B (B = slight discoloration)
- assay (Solid-state stability; [24]): [98.28]
- pH of saturated solution [5]: 5.38
- intrinsic dissolution (rate), in words [6]: high
- Intrinsic Dissolution Rate ([6]; HCl 0.1N): 6.51 mg min^−1 cm^−2
- Intrinsic Dissolution Rate ([6]; Water, free base pellet disintegrated, not true intrinsic rate): 10.17 mg min^−1 cm^−2
- pH of saturated solution [7]: 4.34
SMILES: CS(=O)(=O)O.Cc1[nH]c2ccccc2c1CCNCc1ccc(/C=C/C(=O)NO)cc1 [Mesylate, 1:1 mesylate salt of N-hydroxy-3-[4-[[[2-(2-methyl-1H-indol-3-yl)ethyl]amino]methyl]phenyl]-2E-2-propenamide]

From patent publication US20110112308A1 (NOVARTIS AG, priority 2006, published 2011)
